SMILES strings stand for the structures.

In general, Ki refers to a measure of affinity in units of concentration, obtained from inhibition or displacement.

T1 sequence (P49841 whole entry, species assumed, the tested form may be a part): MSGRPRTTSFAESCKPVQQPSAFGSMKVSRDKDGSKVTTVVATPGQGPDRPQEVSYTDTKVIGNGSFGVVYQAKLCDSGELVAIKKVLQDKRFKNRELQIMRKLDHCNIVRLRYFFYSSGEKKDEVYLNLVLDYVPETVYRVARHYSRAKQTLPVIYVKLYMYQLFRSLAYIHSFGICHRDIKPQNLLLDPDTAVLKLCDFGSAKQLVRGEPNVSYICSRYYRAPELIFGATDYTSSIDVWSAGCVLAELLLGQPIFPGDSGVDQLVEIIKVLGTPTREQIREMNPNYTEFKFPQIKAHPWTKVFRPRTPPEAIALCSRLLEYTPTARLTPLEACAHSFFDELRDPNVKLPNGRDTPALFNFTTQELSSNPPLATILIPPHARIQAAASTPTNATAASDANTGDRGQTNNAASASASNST

This test has as its target T1, GSK-3β (AA 1-420) (Homo sapiens, UniProt P49841).
T1 construct: GSK-3β (AA 1-420)
Description: Ki determination for the inhibition of GSK-3 (coupled enzyme system). Format: biochemical. Conditions: 20 μM ATP, 300 μM peptide, 20 nM GSK-3β, 30° C. How it is done:
Compounds were screened for their ability to inhibit GSK-3β (AA 1-420) activity using a standard coupled enzyme system [Fox et al. Protein Sci. 7, 2249 (1998)]. Reactions were carried out in a solution containing 100 mM HEPES (pH 7.5), 10 mM MgCl2, 25 mM NaCl, 300 μM NADH, 1 mM DTT and 1.5% DMSO. Final substrate concentrations in the assay were 20 μM ATP (Sigma Chemicals, St Louis, Mo.) and 300 μM peptide (American Peptide, Sunnyvale, Calif.). Reactions were carried out at 30° C. and 20 nM GSK-3β. Final concentrations of the components of the coupled enzyme system were 2.5 mM phosphoenolpyruvate, 300 μM NADH, 30 μg/ml pyruvate kinase and 10 μg/ml lactate dehydrogenase.
An assay stock buffer solution was prepared containing all of the reagents listed above with the exception of ATP and the test compound of interest. The assay stock buffer solution (175 μl) was incubated in a 96 well plate with 5 μl of the test compound of interest at final concentrations spanning 0.002 μM to 30 μM at 30° C. for 10 min. Typically, a 12 point titration was conducted by preparing serial dilutions (from 10 mM compound stocks) with DMSO of the test compounds in daughter plates. The reaction was initiated by the addition of 20 μl of ATP (final concentration 20 μM). Rates of reaction were obtained using a Molecular Devices Spectramax plate reader (Sunnyvale, Calif.) over 10 min at 30° C. The Ki values were determined from the rate data as a function of inhibitor concentration.
For `N#Cc1ccc(NCCNc2nc(-c3cc(Cl)ccc3-c3ccccc3)nc3ccccc23)nc1` [Compound I-195, 6-{2-[2-(4-Chloro-biphenyl-2-yl)-quinazolin-4-ylamino]-ethylamino}-nicotinonitrile], the Ki was less than 100 nM.

Consider `N#Cc1ccc(NCCNc2nc(-c3ccc(F)cc3F)nc3ccccc23)nc1` [Compound I-191, 6-{2-[2-(2,4-Difluoro-phenyl)-quinazolin-4-ylamino]-ethylamino}-nicotinonitrile], for which the inhibition constant Ki was less than 100 nM.

For `Cc1nc(-c2ccc(Cl)cc2Cl)nc(NCCNc2ccc(C#N)cn2)c1C` [Compound I-198, 6-{2-[2-(2,4-Dichloro-phenyl)-5,6-dimethyl-pyrimidin-4-ylamino]-ethylamino}-nicotinonitrile], the Ki is less than 100 nM.

In turn, `COc1ccccc1-c1nc(NCCNc2ccc(C#N)cn2)c2ccccc2n1` [Compound I-188, 6-{2-[2-(2-Methoxy-phenyl)-quinazolin-4-ylamino]-ethylamino}-nicotinonitrile] showed an inhibition constant Ki of less than 100 nM.

With `N#Cc1ccc(NCCNc2nc(-c3ccccc3Cl)nc3cccnc23)nc1` [Compound I-118, 6-{2-[2-(2-Chloro-phenyl)-pyrido[3,2-d]pyrimidin-4-ylamino]-ethylamino}-nicotinonitrile], the inhibition constant Ki is less than 100 nM.

`N#Cc1ccc(NCCNc2nc(-c3ccc(Cl)cc3)nc3ccccc23)nc1` [Compound I-2]: the Ki was less than 100 nM.

Consider `N#Cc1ccc(NCCNc2nc(-c3ccccc3C(F)(F)F)nc3ccccc23)nc1` [Compound I-8, 6-{2-[2-(Trifluoromethyl-phenyl)-quinazolin-4-ylamino]-ethylamino}-nicotinonitrile], for which the inhibition constant Ki was less than 100 nM.

In turn, `Cc1nc(-c2ccccc2C(F)(F)F)nc(NCCNc2ccc(C#N)cn2)c1C` [Compound I-197, 6-{2-[5,6-Dimethyl-2-(2-trifluoromethyl-phenyl)-pyrimidin-4-ylamino]-ethylamino}-nicotinonitrile] displayed a Ki of less than 100 nM.

The compound `Cc1nc(-c2ccccc2Cl)nc(NCCNc2ccc(C#N)cn2)c1C` [Compound I-200] gave an inhibition constant (Ki) of less than 100 nM.

Regarding `N#Cc1ccc(NCCNc2nc(-c3ccccc3)nc3ccccc23)nc1` [Compound I-9, 6-[2-(2-Phenyl-quinazolin-4-ylamino)-ethylamino]-nicotinonitrile], the Ki is less than 100 nM.

On to `N#Cc1ccc(NCCNc2nc(-c3ccccc3O)nc3ccccc23)nc1` [Compound I-189, 6-{2-[2-(2-Hydroxy-phenyl)-quinazolin-4-ylamino]-ethylamino}-nicotinonitrile], for which the Ki was less than 100 nM.

`N#Cc1ccc(NCCNc2nc(-c3ccccc3Cl)nc3ccccc23)nc1` [Compound I-11, 6-{2-[2-(2-Chloro-phenyl)-quinazolin-4-ylamino]-ethylamino}-nicotinonitrile] registered an inhibitory constant (Ki) of less than 100 nM.

With `N#Cc1ccc(NCCNc2nc(-c3ccccc3F)nc3ccccc23)nc1` [Compound I-190, 6-{2-[2-(2-Fluoro-phenyl)-quinazolin-4-ylamino]-ethylamino}-nicotinonitrile], the Ki is less than 100 nM.

Consider `N#Cc1ccc(-c2nc(NCCNc3ccc(C#N)cn3)c3ccccc3n2)cc1` [Compound I-19, 6-{2-[2-(4-Cyano-phenyl)-quinazolin-4-ylamino]-ethylamino}-nicotinonitrile], for which the inhibitory constant (Ki) is less than 100 nM.

`N#Cc1ccc(NCCNc2nc(-c3ccc(Cl)cc3Cl)nc3ccccc23)nc1` [Compound I-1, 6-{2-[2-(2,4-Dichloro-phenyl)-quinazolin-4-ylamino]-ethylamino}-nicotinonitrile]: the inhibition constant Ki is less than 100 nM.

Compound `N#Cc1ccc(NCCNc2nc(-c3ccc(Cl)cc3Cl)nc3ccccc23)cc1` [Compound I-62, 4-{2-[2-(2,4-Dichloro-phenyl)-quinazolin-4-ylamino]-ethylamino}-benzonitrile] showed a Ki of less than 100 nM.

The record behind these values is patent publication US20030199526A1, “Pyrimidine-based compounds useful as GSK-3 inhibitors” (priority 2001, published 2003).
